Earlier results as cited in US8518435B2 (priority 2011, dated 2013).

Key:
[1] = test system: bacteria, viruses, parasites, and yeast/mold/fungus; conditions: in vitro (in a test tube)
[2] = test system: influenza virus; conditions: mice infected with lethal doses of influenza virus, vs saline controls
[3] = test system: rhinovirus IB; conditions: in vitro; J. Nat. Prod. (1994)

## COC(=O)C1=CO[C@@H](C)[C@@H](C=O)[C@@H]1CC(=O)[O-].COC(=O)C1=CO[C@@H](C)[C@@H](C=O)[C@@H]1CC(=O)[O-].[Ca+2] [calcium elenolate]
[1]
  effectiveness in eliminating organisms: effective in eliminating a very broad range of organisms

## CC1(C)[C@@H](O[C@H]2O[C@H](C(=O)O)[C@@H](O)[C@H](O)[C@H]2O[C@@H]2O[C@H](C(=O)O)[C@@H](O)[C@H](O)[C@H]2O)CC[C@]2(C)[C@H]3C(=O)C=C4[C@@H]5C[C@@](C)(C(=O)O)CC[C@]5(C)CC[C@@]4(C)[C@]3(C)CC[C@@H]12 [glycyrrhizin]
[2]
  lung damage: less lung damage
  protection from death: protected from death due to the virus

## beta-sesquiphellandrone
[3]
  IC50: 440 nM
